In ChEMBL document CHEMBL1201862, “PubChem BioAssay data set” (2004):
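Step 1: Grow cells in 96-well plates. Step 2: Expose to compound for 48 hours at 5 concentrations. Step 3: Interpolate endpoints linearly; if unreached, use highest concentration. GI50: concentration for 50% inhibition of growth.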 The source made the active and inactive calls. Cut-off read from the data, not from the text of the source: active = GI50 up to about 1.1 µM and inactive = higher.

Columns and labels:
Experiment in all cases: NCI anticancer screen, dose series, 48 h
OVCAR-4 = tested on: OVCAR-4
Malme-3M = tested on: Malme-3M
SF-295 = tested on: SF-295
OVCAR-5 = tested on: OVCAR-5
COLO 205 = tested on: COLO 205
SF-268 = tested on: SF-268
MOLT-4 = tested on: MOLT-4
MDA-N = tested on: MDA-N
CCRF-CEM = tested on: CCRF-CEM
Hs-578T = tested on: Hs-578T
SN12C = tested on: SN12C
HCC 2998 = tested on: HCC 2998
UO-31 = tested on: UO-31
SW-620 = tested on: SW-620
CAKI-1 = tested on: CAKI-1
ACHN = tested on: ACHN
LOX IMVI = tested on: LOX IMVI
OVCAR-3 = tested on: OVCAR-3
NCI/ADR-RES = tested on: NCI/ADR-RES
A498 = tested on: A498

O=C(C=P(c1ccccc1)(c1ccccc1)c1ccccc1)c1ccccc1-c1ccccc1C(=O)C=P(c1ccccc1)(c1ccccc1)c1ccccc1
GI50 (OVCAR-4): 0.029 µM (active)
GI50 (Malme-3M): < 0.01 µM (active)
GI50 (SF-295): 0.0269 µM (active)
GI50 (OVCAR-5): 0.0462 µM (active)
GI50 (COLO 205): 0.0103 µM (active)
GI50 (SF-268): 0.0351 µM (active)
GI50 (MOLT-4): 0.0124 µM (active)
GI50 (MDA-N): 0.0229 µM (active)
GI50 (CCRF-CEM): < 0.0128 µM (active)
GI50 (Hs-578T): 0.0319 µM (active)
GI50 (SN12C): 0.0193 µM (active)
GI50 (HCC 2998): 0.0319 µM (active)
GI50 (UO-31): 0.228 µM (active)
GI50 (SW-620): 0.027 µM (active)
GI50 (CAKI-1): 0.163 µM (active)
GI50 (ACHN): 0.0272 µM (active)
GI50 (LOX IMVI): 0.018 µM (active)
GI50 (OVCAR-3): < 0.01 µM (active)
GI50 (NCI/ADR-RES): 0.373 µM (active)
GI50 (A498): 0.0264 µM (active)

N#CC1=C2Sc3ccccc3N2[C@H](c2ccccc2)[C@H]2COC(=O)[C@@H]12
GI50 (OVCAR-4): > 100 µM (inactive)
GI50 (Malme-3M): 16.7 µM (inactive)
GI50 (SF-295): > 100 µM (inactive)
GI50 (OVCAR-5): > 100 µM (inactive)
GI50 (COLO 205): > 100 µM (inactive)
GI50 (SF-268): 17.1 µM (inactive)
GI50 (MOLT-4): 33.5 µM (inactive)
GI50 (MDA-N): > 100 µM (inactive)
GI50 (CCRF-CEM): 7.45 µM (inactive)
GI50 (Hs-578T): > 100 µM (inactive)
GI50 (HCC 2998): > 100 µM (inactive)
GI50 (UO-31): > 100 µM (inactive)
GI50 (SW-620): 35.2 µM (inactive)
GI50 (CAKI-1): 17.5 µM (inactive)
GI50 (ACHN): > 100 µM (inactive)
GI50 (LOX IMVI): 26.3 µM (inactive)
GI50 (OVCAR-3): > 100 µM (inactive)
GI50 (NCI/ADR-RES): > 100 µM (inactive)
GI50 (A498): 54.8 µM (inactive)

O=C1C(CN2CCOCC2)CCCC1CN1CCOCC1 (stereo not given)
GI50 (OVCAR-4): 2.18 µM (inactive)
GI50 (Malme-3M): 0.724 µM (active)
GI50 (SF-295): 33.4 µM (inactive)
GI50 (OVCAR-5): 18.6 µM (inactive)
GI50 (COLO 205): 3.1 µM (inactive)
GI50 (SF-268): 9.77 µM (inactive)
GI50 (MOLT-4): 0.861 µM (active)
GI50 (MDA-N): 4.37 µM (inactive)
GI50 (CCRF-CEM): 0.76 µM (active)
GI50 (Hs-578T): 23 µM (inactive)
GI50 (SN12C): 4.01 µM (inactive)
GI50 (HCC 2998): 5.27 µM (inactive)
GI50 (UO-31): 9.73 µM (inactive)
GI50 (SW-620): 0.436 µM (active)
GI50 (CAKI-1): 0.394 µM (active)
GI50 (ACHN): 1.88 µM (inactive)
GI50 (LOX IMVI): 3.28 µM (inactive)
GI50 (OVCAR-3): 3.1 µM (inactive)
GI50 (NCI/ADR-RES): 2.18 µM (inactive)
GI50 (A498): 23 µM (inactive)

O=C1c2cccc3cc([N+](=O)[O-])cc(c23)C(=O)N1c1ccc(OCCN2CCCC2)cc1
GI50 (OVCAR-4): 28.1 µM (inactive)
GI50 (Malme-3M): 15 µM (inactive)
GI50 (SF-295): 20.8 µM (inactive)
GI50 (OVCAR-5): 19.4 µM (inactive)
GI50 (COLO 205): 9.46 µM (inactive)
GI50 (SF-268): 22 µM (inactive)
GI50 (MOLT-4): 4.85 µM (inactive)
GI50 (MDA-N): 30.8 µM (inactive)
GI50 (CCRF-CEM): 18.6 µM (inactive)
GI50 (Hs-578T): 24.9 µM (inactive)
GI50 (SN12C): > 100 µM (inactive)
GI50 (HCC 2998): 17.1 µM (inactive)
GI50 (UO-31): 13.6 µM (inactive)
GI50 (SW-620): 17.2 µM (inactive)
GI50 (CAKI-1): > 100 µM (inactive)
GI50 (ACHN): 10 µM (inactive)
GI50 (LOX IMVI): 10.8 µM (inactive)
GI50 (NCI/ADR-RES): 32.5 µM (inactive)
GI50 (A498): 12.4 µM (inactive)

O=S(=O)(/C=C/C=C/[S+]([O-])c1ccccc1)c1ccccc1 (stereo not given)
GI50 (OVCAR-4): 1.59 µM (inactive)
GI50 (Malme-3M): 1.98 µM (inactive)
GI50 (SF-295): > 10 µM (inactive)
GI50 (OVCAR-5): > 8.22 µM (inactive)
GI50 (COLO 205): 1.76 µM (inactive)
GI50 (SF-268): 3.13 µM (inactive)
GI50 (MOLT-4): 1.42 µM (inactive)
GI50 (MDA-N): 2.95 µM (inactive)
GI50 (CCRF-CEM): 0.333 µM (active)
GI50 (Hs-578T): 3.51 µM (inactive)
GI50 (SN12C): 2 µM (inactive)
GI50 (HCC 2998): > 10 µM (inactive)
GI50 (UO-31): 2.27 µM (inactive)
GI50 (SW-620): 1.3 µM (inactive)
GI50 (CAKI-1): 1.84 µM (inactive)
GI50 (ACHN): 2.34 µM (inactive)
GI50 (LOX IMVI): 1.03 µM (active)
GI50 (OVCAR-3): 1.53 µM (inactive)
GI50 (NCI/ADR-RES): 2.12 µM (inactive)
GI50 (A498): 6.97 µM (inactive)

N#CC1=C(S)N(C2OC(CO)C(O)C(O)C2O)C(c2ccccc2)=CC1c1ccco1 (stereo not given)
GI50 (OVCAR-4): > 100 µM (inactive)
GI50 (Malme-3M): 81.7 µM (inactive)
GI50 (SF-295): 24.6 µM (inactive)
GI50 (OVCAR-5): > 100 µM (inactive)
GI50 (COLO 205): > 10 µM (inactive)
GI50 (SF-268): > 100 µM (inactive)
GI50 (MOLT-4): 35.2 µM (inactive)
GI50 (MDA-N): 93.3 µM (inactive)
GI50 (CCRF-CEM): 88.9 µM (inactive)
GI50 (Hs-578T): 56.5 µM (inactive)
GI50 (SN12C): 40.5 µM (inactive)
GI50 (HCC 2998): 28.4 µM (inactive)
GI50 (UO-31): 82.2 µM (inactive)
GI50 (CAKI-1): 38.8 µM (inactive)
GI50 (ACHN): > 10 µM (inactive)
GI50 (LOX IMVI): 23.2 µM (inactive)
GI50 (OVCAR-3): > 100 µM (inactive)
GI50 (NCI/ADR-RES): > 100 µM (inactive)
GI50 (A498): 71.6 µM (inactive)

COc1cc(/C=C/C2=NN(c3cccc(S(=O)(=O)O)c3)C3(C2)SCC(=O)N3c2nc3ccccc3s2)cc(OC)c1OC (stereo not given)
GI50 (OVCAR-4): 78.7 µM (inactive)
GI50 (Malme-3M): > 100 µM (inactive)
GI50 (OVCAR-5): > 100 µM (inactive)
GI50 (COLO 205): > 100 µM (inactive)
GI50 (SF-268): 39.4 µM (inactive)
GI50 (MOLT-4): 32.9 µM (inactive)
GI50 (MDA-N): 39.4 µM (inactive)
GI50 (CCRF-CEM): 28.8 µM (inactive)
GI50 (Hs-578T): 56.6 µM (inactive)
GI50 (SN12C): 33.3 µM (inactive)
GI50 (HCC 2998): > 100 µM (inactive)
GI50 (UO-31): 36.1 µM (inactive)
GI50 (SW-620): 61.7 µM (inactive)
GI50 (CAKI-1): 55.2 µM (inactive)
GI50 (ACHN): 64.3 µM (inactive)
GI50 (LOX IMVI): 20.4 µM (inactive)
GI50 (NCI/ADR-RES): 42.7 µM (inactive)
GI50 (A498): 39.9 µM (inactive)
